The values below come from US8614253B2, “IRE-1α inhibitors” (MannKind Corporation, priority 2007, dated 2013).

For assay [1], the system named is RPMI-8226 multiple myeloma cells. In words: Proliferation of multiple myeloma cells (CellTiter-Glo). The assay is classed as cell-based, human. The settings on record: RPMI8226 cells, 24 hours, FIG. 5. The method, then:
FIG. 5. Graph showing inhibition of proliferation of multiple myeloma cells by IRE-1α inhibitor 11-28 (Example 11). RPMI-8226 multiple myeloma cells were seeded at 20,000 cells per well in RPMI culture medium containing 1% FBS and the required antibiotics. The plate was incubated overnight at 37° C., 95% air, 5% CO2. The following day, compound 11-28 or medium alone was added to wells, resulting in a final volume of 100 μl per well. The compound concentration ranged from 100 μM to 0 μM, with compounds diluted by a factor of 4. After addition of compound, the plate was incubated at 37° C., 95% air, 5% CO2 for 24 hours. Cell proliferation was measured using the CellTiter-Glo assay (Promega), following the manufacturer's instructions.
Proliferation assays using myeloma cell lines (U266, RPMI8226 and MM.1s) are used to determine ED50. Compounds are used as single agents and in combination with other chemotherapeutic drugs.
In general terms: In ATP-based viability assays light output follows the ATP content of the culture.

Assay [2] has as its target T1, IRE-1α (Homo sapiens (Human), UniProt O75460). Briefly: IRE-1α assay: in vitro cleavage of mini-XBP-1 mRNA stem-loop substrate by GST-IRE-1α. It counts as biochemical. The method, then: A fusion protein comprising glutathione S transferase (GST) and human IRE-1α (GST-IRE-1α) was obtained from a 500 ml baculovirus-infected insect cell culture and used to measure IRE-1α activity in vitro.
Five μl of a reaction mixture comprising 1× reaction buffer (5× reaction buffer is 100 mM Hepes pH 7.5, 250 mM KOAc, 2.5 mM MgCl2), 3 mM DTT, and 0.4% polyethylene glycol water were added to each well of 384 well plates. Twenty-five nanoliters of a 1 mM test compound solution were added to test wells. […] Negative control wells contained only reaction mixture and test compound.
The plates were again spun at 1200 rpm for 30 seconds.
The plates were covered with lids and incubated for one hour at 30° C. The plates were then transferred to an ACQUEST™ microplate reader. Data was analyzed using data analysis software, and the percent activity of IRE-1α was calculated.
Target sequence in this assay (O75460 19-977): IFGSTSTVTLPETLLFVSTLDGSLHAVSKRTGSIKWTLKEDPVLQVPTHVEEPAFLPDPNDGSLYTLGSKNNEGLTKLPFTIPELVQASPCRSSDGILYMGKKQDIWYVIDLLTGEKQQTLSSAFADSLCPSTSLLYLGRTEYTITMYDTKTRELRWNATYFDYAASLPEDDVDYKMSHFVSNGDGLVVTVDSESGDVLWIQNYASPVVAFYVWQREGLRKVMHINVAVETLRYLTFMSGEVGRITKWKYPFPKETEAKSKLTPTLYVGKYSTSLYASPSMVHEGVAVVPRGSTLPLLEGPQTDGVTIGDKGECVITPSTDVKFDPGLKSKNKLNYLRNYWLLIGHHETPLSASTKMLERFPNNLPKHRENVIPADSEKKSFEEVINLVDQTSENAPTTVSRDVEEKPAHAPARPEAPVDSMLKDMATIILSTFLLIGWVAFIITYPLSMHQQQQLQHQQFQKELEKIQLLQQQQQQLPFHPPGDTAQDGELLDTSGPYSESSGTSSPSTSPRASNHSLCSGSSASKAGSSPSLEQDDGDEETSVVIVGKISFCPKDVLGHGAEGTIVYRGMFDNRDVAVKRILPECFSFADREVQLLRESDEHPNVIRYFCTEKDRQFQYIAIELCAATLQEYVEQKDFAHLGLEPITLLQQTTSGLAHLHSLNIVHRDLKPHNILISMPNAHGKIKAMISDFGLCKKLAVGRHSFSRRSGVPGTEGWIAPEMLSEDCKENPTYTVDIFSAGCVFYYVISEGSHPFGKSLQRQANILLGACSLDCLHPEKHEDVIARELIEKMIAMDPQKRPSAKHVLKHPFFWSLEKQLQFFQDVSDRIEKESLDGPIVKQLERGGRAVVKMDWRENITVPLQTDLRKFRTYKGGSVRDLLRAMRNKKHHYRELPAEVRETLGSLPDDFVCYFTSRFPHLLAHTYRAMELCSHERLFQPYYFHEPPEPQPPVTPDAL

The test system of the next assay is primary murine B cells. In words: IgM secretion after LPS stimulation of primary murine B cells. The assay is classed as cell-based, mouse. The procedure:
FIG. 9. Inhibition of IgM secretion after LPS stimulation of primary murine B cells with selected IRE-1α inhibitors. […] However, compounds had little effect when at added after 40 hours of stimulation; only slight inhibition at the highest dose. Methods were performed as previously described by Iwakoshi et al., Nature 4, 321-29, 2003 for B cell stimulation, plasma cell differentiation and IgM secretion. Primary B cells were Isolated from BALB/c splenocytes using mouse CD43 Microbeads (Miltenyi cat# 130-049-801) with 1×10^6 cells per treatment. Purified B cells were stimulated in B Cell Media at a final density of 1×10^6/ml/well in 24-well plates with 20 μg/ml LPS (Sigma cat# L4391). IRE-1α inhibitor compound 17-1 was added at various concentrations (50 μM, 10 μM, 2 μM, 0.4 μM and 0.08 μM) at specified time points (t=0, t=24 hr, t=40 hr, etc.) Cells were incubated for 48 hr at 37° C. At end of the incubation, cells were spun in a plate at 1500 rpm/3 min. Supernatants were collected for quantitation for IgM secretion using a mouse IgM ELISA Kit (Bethyl Labs cat# E90-101). B Cell medium included RPMI+10% FBS supplemented with NEAA, HEPES, NaPyr, PSQ, and β-mercaptoethanol.

The target of assay [3] is T1, IRE-1α. In words: Phosphorylated IRE-1α and XBP1-splicing in RPMI8226 cells (Western blot, agarose gel). It counts as cell-based. The conditions noted are these: 24 hour treatment, FIG. 6. The source says: FIG. 6. […] The numbers indicate the concentration of bortezomib in nM.
Background: A western blot detects proteins with antibodies after separation by electrophoresis.

For assay [4], the system named is human myeloma RPMI8226 tumor xenografts. Briefly: RPMI8226 myeloma tumor xenograft in SCID mice. It counts as in vivo, mouse. The settings on record: 0.75 mg/kg IV twice weekly.

`COc1cc(-c2cccs2)cc(C=O)c1O` [11-28]: in assay [1], the inhibition of proliferation result is listed as “inhibits the proliferation of RPMI8226 myeloma cells”.
At IRE-1α [2] (Table 3), `COc1cccc(C=O)c1O` [drawing 230] displayed an IC50 of 2370 nM.
`COc1ccc(Br)c(C=O)c1O` [drawing 180] gave a half-inhibitory concentration (IC50) against IRE-1α [2] (Table 3) of 80 nM.
Take `CN(C)C(=O)c1ccc(-c2ccc3c(C=O)c(O)ccc3c2)cc1` [17-1, 4-(5-formyl-6-hydroxynaphthalen-2-yl)-N,N-dimethylbenzamide]: the IgM secretion entry with primary murine B cells (added after 40 hours of stimulation) is reported as “little effect”; with primary murine B cells (added at beginning of stimulation and again at 24 hours), “blocked IgM secretion at all doses tested down to 100 nM”.
As to `CC(C)C[C@H](NC(=O)[C@H](Cc1ccccc1)NC(=O)c1cnccn1)B(O)O` [bortezomib, [(1R)-3-methyl-1-[[(2S)-1-oxo-3-phenyl-2-[(pyrazinylcarbonyl)amino]propyl]amino]butyl]boronic acid], on IRE-1α [3], the “levels of phosphorylated IRE-1α and XBP1-splicing” value was “increases the levels of phosphorylated IRE-1α and XBP1-splicing”. Also, the tumor growth entry in assay [4] is “suppression of tumor growth”.
In turn, `COc1cccc(C=O)c1O` [o-vanillin, 2-hydroxy-3-methoxybenzaldehyde] displayed an IC50 against IRE-1α [2] (values in text) of 3000 nM.
As to `COc1cccc(C=O)c1O` [drawing 238], it took 5750 nM to reach half-maximal inhibition against IRE-1α [2] (Table 3) (IC50).
`COc1ccc(Br)c(C=O)c1O` [6-bromo o-vanillin] yielded an IC50 against IRE-1α [2] (values in text) of 30 nM.

As usually defined, the IC50 is the concentration needed to halve the response being measured.
